Results from ChEMBL document CHEMBL1151528, “The synthesis of heterosubstituted benzimidazole derivatives with potent angiotensin II antagonist activity” (Bioorg Med Chem Lett, 1993).

These compounds were tested against Angiotensin II receptor (Rattus norvegicus) (UniProt P29089+P25095+P35351) (assay: Inhibition of pressor response induced by Angiotensin II in Alderley Park Wistar rats after single intravenous dose).
Type: functional

| ED50 | SMILES |
| --- | --- |
| 0.65 mg/kg | CCCCc1nc(Cl)c(CO)n1Cc1ccc(-c2ccccc2-c2nnn[nH]2)cc1 |
| 6.7 mg/kg | CCCCc1nc2cnnc(O)c2n1Cc1ccc(-c2ccccc2C(=O)O)cc1 |
| 5.2 mg/kg | CCCCc1nc2cnncc2n1Cc1ccc(-c2ccccc2C(=O)O)cc1 |
| 0.22 mg/kg | CCc1nc2c(C)cc(C)nc2n1Cc1ccc(-c2ccccc2-c2nn[nH]n2)cc1 |
| 5.2 mg/kg | CCCCc1nc2ccccc2n1Cc1ccc(-c2ccccc2-c2nn[nH]n2)cc1 |
| 0.35 mg/kg | CCCCc1nc2ccnc(O)c2n1Cc1ccc(-c2ccccc2-c2nn[nH]n2)cc1 |
| 47 mg/kg | CCCCc1nc2cnn(C)c(=O)c2n1Cc1ccc(-c2ccccc2C(=O)O)cc1 |
| 0.62 mg/kg | CCCCc1nc2cnnc(O)c2n1Cc1ccc(-c2ccccc2-c2nn[nH]n2)cc1 |
| 0.04 mg/kg | CCCCc1nc2c(=O)[nH][nH]c(=O)c2n1Cc1ccc(-c2ccccc2-c2nn[nH]n2)cc1 |

These compounds were tested against angiotensin II receptor (Cavia porcellus) (assay: Displacement of monoiodinated angiotensin II from guinea-pig adrenal gland angiotensin II receptor).

| IC50 | SMILES |
| --- | --- |
| 100 µM | CCCCc1nc2cnn(Cc3ccc(-c4ccccc4C(=O)OC)cc3)cc-2n1 |
| 10 µM | CCCCc1nc2cnncc2n1Cc1ccc(-c2ccccc2C(=O)O)cc1 |
| 0.255 µM | CCCCc1nc(C(=O)OCC)c(C(=O)OCC)n1Cc1ccc(-c2ccccc2-c2nn[nH]n2)cc1 |
| 0.016 µM | CCCCc1nc2ccnc(O)c2n1Cc1ccc(-c2ccccc2-c2nn[nH]n2)cc1 |
| 10 µM | CCCCc1nc2cnn(C)c(=O)c2n1Cc1ccc(-c2ccccc2C(=O)O)cc1 |
| 0.022 µM | CCCCc1nc2cnnc(O)c2n1Cc1ccc(-c2ccccc2-c2nn[nH]n2)cc1 |
